# Assay results taken from ChEMBL document CHEMBL1221304, “Proline isosteres in a series of 2,4-disubstituted pyrrolo[1,2-f][1,2,4]triazine inhibitors of IGF-1R kinase and IR kinase” (Bioorg Med Chem Lett, 2010).
# Legend:
# [1] = molecular target: T1, Insulin-like growth factor 1 receptor (Homo sapiens, UniProt P08069); assay: Inhibition of IGF1R
# [2] = molecular target: T1, Insulin-like growth factor 1 receptor; assay: Inhibition of IGF1R in IGF1R-SAL cells; format: cell-based
# [3] = Permeability by PAMPA assay; format: ADME; settings: for Papp: read-out: permeability
# T1 sequence (P08069 31-736 limits assumed): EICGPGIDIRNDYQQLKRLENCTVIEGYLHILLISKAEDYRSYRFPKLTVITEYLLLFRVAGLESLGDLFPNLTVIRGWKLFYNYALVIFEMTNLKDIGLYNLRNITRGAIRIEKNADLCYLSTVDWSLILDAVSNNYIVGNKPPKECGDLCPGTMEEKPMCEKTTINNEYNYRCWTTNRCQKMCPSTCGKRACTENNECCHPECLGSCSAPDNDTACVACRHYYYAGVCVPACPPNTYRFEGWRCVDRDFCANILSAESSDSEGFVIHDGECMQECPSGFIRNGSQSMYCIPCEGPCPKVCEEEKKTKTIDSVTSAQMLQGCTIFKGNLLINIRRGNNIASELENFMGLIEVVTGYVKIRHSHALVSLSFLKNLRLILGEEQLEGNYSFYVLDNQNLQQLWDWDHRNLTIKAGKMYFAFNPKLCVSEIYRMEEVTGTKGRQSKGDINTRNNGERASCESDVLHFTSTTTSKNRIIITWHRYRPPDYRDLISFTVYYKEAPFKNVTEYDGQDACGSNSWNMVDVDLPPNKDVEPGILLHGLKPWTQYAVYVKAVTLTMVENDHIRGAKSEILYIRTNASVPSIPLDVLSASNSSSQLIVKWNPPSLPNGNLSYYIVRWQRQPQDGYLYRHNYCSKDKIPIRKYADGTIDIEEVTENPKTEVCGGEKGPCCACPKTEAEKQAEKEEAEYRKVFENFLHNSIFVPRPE
# T1 sequence (P08069 741-1367 limits assumed): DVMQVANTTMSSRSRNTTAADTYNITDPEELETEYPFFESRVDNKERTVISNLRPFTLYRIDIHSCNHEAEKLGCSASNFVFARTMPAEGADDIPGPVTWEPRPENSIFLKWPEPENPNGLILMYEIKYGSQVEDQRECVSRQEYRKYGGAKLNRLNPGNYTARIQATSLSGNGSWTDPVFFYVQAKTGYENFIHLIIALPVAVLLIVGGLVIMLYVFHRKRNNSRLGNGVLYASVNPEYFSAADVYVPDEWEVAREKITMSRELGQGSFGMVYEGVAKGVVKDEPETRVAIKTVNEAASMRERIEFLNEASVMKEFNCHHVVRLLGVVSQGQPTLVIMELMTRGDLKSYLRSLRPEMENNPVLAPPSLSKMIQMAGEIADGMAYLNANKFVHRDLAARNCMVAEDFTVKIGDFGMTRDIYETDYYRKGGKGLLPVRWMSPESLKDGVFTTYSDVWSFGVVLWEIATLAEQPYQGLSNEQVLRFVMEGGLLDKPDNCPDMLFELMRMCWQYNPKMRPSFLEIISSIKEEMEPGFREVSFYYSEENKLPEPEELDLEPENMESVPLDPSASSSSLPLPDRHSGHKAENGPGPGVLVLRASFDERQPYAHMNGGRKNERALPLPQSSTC
IC50 [1] [nM],IC50 [2] [nM],Papp [3] [×10⁻⁶ cm/s],permeability [3] [×10⁻⁶ cm/s],Structure (SMILES)
2.7,1,77,,O=C(Nc1ccc(F)nc1)[C@@H]1CCCN1c1nc(Nc2cc(C3CC3)[nH]n2)c2cccn2n1
11,508,60,,O=C1CC[C@@H](c2nc(Nc3cc(C4CC4)[nH]n3)c3cccn3n2)N1C(=O)c1ccc(F)nc1
32,237,82.2,,O=C(Nc1ccc(F)nc1)C1=C(c2nc(Nc3cc(C4CC4)[nH]n3)c3cccn3n2)CCC1
,40,52.5,,O=C(NCc1nc(Nc2cc(C3CC3)n[nH]2)c2cccn2n1)c1ccc(F)nc1
9.7,206,50.9,,O=C(Nc1ccc(F)nc1)[C@@H]1CCC[C@H]1c1nc(Nc2cc(C3CC3)n[nH]2)c2cccn2n1 (stereo in doubt; (+)-25)
190,389,,85.4,O=C(Nc1ccc(F)nc1)[C@@H]1CCC[C@H]1c1nc(Nc2cc(C3CC3)n[nH]2)c2cccn2n1 (stereo in doubt; (-)-25)
,,63.4,,C[C@@]1(C(=O)Nc2ccc(F)nc2)CCCN1c1nc(Nc2cc(C3CC3)n[nH]2)c2cccn2n1 [BMS-754807]

Structure (SMILES),IC50 [1] [nM],IC50 [2] [nM],Papp [3] [×10⁻⁶ cm/s],permeability [3] [×10⁻⁶ cm/s]
O=C(c1ccc(F)nc1)N1CCC[C@H]1c1nc(Nc2cc(C3CC3)[nH]n2)c2cccn2n1,,162,72.1,
O=C(c1ccc(F)nc1)N1CCC[C@@H]1c1nc(Nc2cc(C3CC3)[nH]n2)c2cccn2n1,8400,,93.5,
